Experimental data published in patent publication US9606124B2, “Methods of detecting and treating stem-cell containing solid tumors” (The Regents of The University of Michigan, priority 2008, dated 2017).
Entries after “also recorded” stand apart in the source; their conditions may differ.

How the values were obtained:
MDA-MB-453 cells = test: MTT assay, cell viability of MDA-MB-453 cells; assay type: cell-based, human; details: MDA-MB-453 (PTEN mutation), repertaxin 100 nM
Source text: (§1) Cell viability. […] After one day, treatment with repertaxin was started. […]. […] Nuclei were counterstained with DAPI/antifade (Invitrogen).

[1] = tested on: ALDEFLUOR-positive population of MDA-MB-453; test: ALDEFLUOR assay on MDA-MB-453 cells in vitro; assay type: cell-based, human; details: three days, repertaxin 100 nM, antibodies 10 μg/ml
Method: ALDEFLUOR assay. […] In order to eliminate cells of mouse origin from the xenotransplanted tumors, cell population was stained with an anti-H2Kd antibody (BD biosciences, 1/200, 20 min on ice) followed by staining with a secondary antibody labeled with phycoerythrin (PE) (Jackson labs, 1/250, 20 min on ice).

SUM159 cells = test: TUNEL assay, apoptotic cells; assay type: cell-based, human; details: 4 days of treatment
Source text: as §1

[2] = tested on: CXCR1-positive, CXCR1-negative and unsorted populations of SUM159 cells; test: MTT assay on flow sorted CXCR1-positive, CXCR1-negative and unsorted populations; assay type: cell-based, human; details: for cell viability of the unsorted / unseparated population: SUM159 cells
Method: Cell viability. […] Nuclei were counterstained with DAPI/antifade (Invitrogen).
(§2) Flow cytometry analysis. […] CD95/FAS staining were performed utilizing an anti-CD95 labeled APC (1:20, BD biosciences). […] Fresh cells were stained with 1 μg/ml PI (Sigma) for 5 min for viability.

[3] = tested on: CXCR1-positive population of SUM159 cells; test: Flow cytometry of the CXCR1-positive population of SUM159 cells; assay type: cell-based, human; details: repertaxin, repertaxin plus anti-FAS-ligand, FAS agonist
Method: as §2

[4] = tested on: normal mammary epithelial cells from reduction mammoplasties; test: MTT assay on normal mammary epithelial cells; assay type: cell-based, human; details: adherent; five days; repertaxin 100 nM or 500 nM, FAS agonist 500 ng/ml
Method: Dissociation of mammary tissue. 100-200 g of normal breast tissue from reduction mammoplasties was minced with scalpels, dissociated enzymatically, and single cells were cultured in suspension to generate mammospheres or on a collagen substratum in adherent condition to induce cellular differentiation (Dontu et al. Genes Dev. 17:1253-1270, herein incorporated by reference in its entirety).
as §1

[5] = tested on: normal mammary epithelial cells; test: Mammosphere formation by normal mammary epithelial cells; assay type: cell-based, human; details: repertaxin 100 nM for four to fifteen days adherent, then suspension
[6] = tested on: FAK Tyr397 and AKT Ser473 phosphorylation; test: Western blotting of FAK/AKT activation in MDA-MB-453; assay type: cell-based, human
Method: Western blotting. Cells were lysed in a laemmli buffer and loaded onto SDS-polyacrylamide gels. Blots were incubated with the respective primary antibodies diluted in TBST (containing 0.1% Tween20 and 2% BSA) either overnight at 4o, or 2 hours at room temperature. Blots were washed and incubated with appropriate secondary antibodies (GE Healthcare, UK) and detected using SuperSignal West Pico Chemiluminescent Substrate (Pierce).

FOXO3A [7] = test: Immunofluorescence staining of FOXO3A localization in SUM159 cells; assay type: cell-based, human
Method: The non-treated SUM159 cells presented 80% of cells positive in the cytoplasm for FOXOA3. […] The change in FOXOA3 cellular localation from the cytoplasm to the nucleus indicates an activation of FOXOA3 protein.
(§3) Immunostaining. For immunofluorescent staining, sorted CXCR1-positive cells were fixed with 95% methanol at −20° C. for 10 minutes. Cells were rehydrated in PBS and incubated with respective antibodies at room temperature for 1 hour. Primary antibodies used were P-FAK (1:50, Cell Signaling Technology), P-AKT (1:300, Cell Signaling Technology), and FOXO3a (1:250, Cell Signaling Technology). Slides were then washed and incubated 30 minutes with PE conjugated secondary antibodies (Jackson labs). The nuclei were counterstained with DAPI/antifade (Invitrogen) and coverslipped. […] Immunohistochemistry for the detection of ALDH1 (1:100, BD biosciences), P-FAK, P-AKT, FOXO3a expression was done on paraffin section (Ginestier et al. Am. J Pathol. 161:1223-1233, herein incorporated by reference in its entirety). Staining was done utilizing the Histostainplus kit (Zymed laboratories). Diaminobenzidine (DAB) or 3-amino-9-ethylcarbazole (AEC) was used as chromogen and sections were counterstained with hematoxylin.

[8] = tested on: cells from primary tumors SUM159, MC1, UM2, UM3; test: Re-implantation of cells from treated tumors into secondary mice; assay type: in vivo, NOD/SCID mice; details: for secondary tumor formation / regrowth from serial dilutions of treated primary tumors: secondary NOD/SCID mice, no further treatment
Method: Animal model. […] Cells from these tumors were transplanted orthotopically in the humanized cleared fat-pad of NOD/SCID mice, without cultivation in vitro. […] 50,000 cells from each xenotransplants were injected in the humanized fat pad of NOD/SCID mice and monitored the tumor growth. […] The animals were euthanized when the tumors were approximately 1.5 cm in the largest diameter, to avoid tumor necrosis and in compliance with regulations for use of vertebrate animal in research. A portion of each fat pad injected was fixed in formalin and embedded in paraffin for histological analysis. The rest of the tumor cells were re-implantated into secondary NOD/SCID mice. […]

phospho-FAK = test: Immunohistochemistry of phospho-FAK in xenotransplants; design: species or system NOD/SCID mice; details: mouse, in vivo
Method: as §3

FOXO3A [9] = test: Immunohistochemistry of FOXO3A in xenotransplants; design: species or system NOD/SCID mice; details: mouse, in vivo
Method: as §3

ALDH1 = test: Immunohistochemistry of ALDH1 in xenotransplants; assay type: in vivo, NOD/SCID mice; details: compared to untreated tumors
Method: as §3

SUM159 cell line = test: MTT assay, cell growth / cell viability of SUM159 cells
Method: After 4 days of treatment, the effect on cell growth was analyzed using the MTT assay (FIG. 5A) and on the cancer stem cell population using the ALDEFLUOR assay (FIG. 5B).

CC(C)Cc1ccc([C@@H](C)C(=O)NS(C)(=O)=O)cc1 [Repertaxin]
cell viability (MTT) (MDA-MB-453 cells): no effect; also recorded: did not have any effect on cell viability
cell viability (MTT) (MDA-MB-453 cells; listed as repertaxin): did not effect the viability
ALDEFLUOR-positive population [1]: np any effect
apoptotic cells (TUNEL) (SUM159 cells): 36%
cell viability of the unsorted / unseparated population [2]: massive cell death
cell viability of the unsorted / unseparated population ([2]; listed as repertaxin): decrease in cell viability
cell viability of the CXCR1-negative population ([2]; sorted SUM159 cells): no effect
cell viability of the CXCR1-positive population ([2]; sorted SUM159 cells): decreased cell viability
cell viability of the CXCR1-positive population ([2]; sorted SUM159 cells, listed as repertaxin): decrease in cell viability
percent of CXCR1-positive cells [3]: massive decrease
viability of normal mammary epithelial cells (MTT) [4]: no effect
mammosphere formation by normal mammary epithelial cells [5]: significantly decreased mammosphere formation; also recorded: significant decrease of mammosphere-initiating cells
FAK Tyr397 and AKT Ser473 phosphorylation (western blot) [6]: No modification
cells positive in the nucleus for FOXOA3 (FOXO3A [7]; SUM159, 100 nM, 2 days): 80%
FOXO3A localization (immunofluorescence) (FOXO3A [7]; sorted CXCR1-positive cells, listed as repertaxin): shuttled to the nucleus; also recorded: re-localization of FOXO3A to the nucleus
reduction in tumor growth in secondary mice compared to cells from control or docetaxel-treated animals ([8]; equal numbers of cells injected): 2-5 fold
Tumors/Injections ([8]; number of cells injected 100): 0/9
Tumors/Injections ([8]; number of cells injected 250): 0/2
Tumors/Injections ([8]; number of cells injected 500): 1/3
Tumors/Injections ([8]; number of cells injected 1,000): 4/8
Tumors/Injections ([8]; number of cells injected 2,500): 2/2
Tumors/Injections ([8]; number of cells injected 5,000): 2/2
Tumors/Injections ([8]; number of cells injected 10,000): 4/4
secondary tumor formation / regrowth from serial dilutions of treated primary tumors [8]: reduced tumor growth in secondary recipients; also recorded: only higher numbers of cells
secondary tumor formation / regrowth from serial dilutions of treated primary tumors ([8]; listed as Reperatxin): delayed secondary tumors which were significantly smaller in size
cells with membranous phospho-FAK expression in treated tumors (phospho-FAK): abolished; also recorded: no expression was detected
nuclear FOXO3A in treated tumors (FOXO3A [9]): detected
ALDH1-positive cells / ALDH1 expression in treated tumors (ALDH1): decrease in ALDH1-positive cells; also recorded: decrease of ALDH1 expression
viability at 0.1 µM (SUM159 cell line; Homo sapiens, SUM159, 120 h, read-out: cells remaining viable / cell viability (MTT)): 3%
cell viability over time (one, three, five days) (SUM159 cell line; SUM159, repertaxin 100 nM): loss of cell viability beginning three days after treatment; also recorded: decrease in cell viability was observed after 3 days of treatment
